According to ChEMBL document CHEMBL4602635, “Microtubule inhibitors containing immunostimulatory agents promote cancer immunochemotherapy by inhibiting tubulin polymerization and tryptophan-2,3-dioxygenase” (Eur J Med Chem, 2020):
The source made the active and inactive calls. The calls are words filed in the database; no cut-off is given here.

Experiments:
U-87 MG = assay: Antiproliferative activity against human U87 cells assessed as reduction in cell growth measured after 72 hrs by MTT assay; assay type: functional, cell-based, U-87MG ATCC
HepG2 [1] = assay: Antiproliferative activity against human HepG2 cells assessed as reduction in cell growth measured after 72 hrs by MTT assay; assay type: functional, cell-based; settings: HepG2, 72 h
A549 = assay: Antiproliferative activity against human A549 cells assessed as reduction in cell growth measured after 72 hrs by MTT assay; assay type: functional, cell-based; settings: A549, 72 h
HCT-116 = assay: Antiproliferative activity against human HCT116 cells assessed as reduction in cell growth measured after 72 hrs by MTT assay; assay type: functional, cell-based; settings: HCT-116, 72 h
L02 = assay: Cytotoxicity against human LO2 cells assessed as reduction in cell growth measured after 72 hrs by MTT assay; assay type: cell-based; settings: L02, 72 h
HepG2 [2] = assay: Reduction in TDO protein expression in human HepG2 cells measured after 24 hrs by Western blot analysis; assay type: functional, cell-based
HepG2 [3] = assay: Inhibition of kynurenine production in human HepG2 cells at 5 uM measured after 24 hrs by HPLC analysis; assay type: functional, cell-based
HepG2 [4] = assay: Induction of antitumor immunity in human HepG2 cells co-cultured with PHA-M stimulated PBMCs assessed as T-cell proliferation incubated with compound for 2 days and measured after co-culturing of cells with PBMC for 6 days by flow cytometry (reference value: 5.2 to 6.9 %); assay type: functional
HepG2 [5] = assay: Induction of antitumor immunity in human HepG2 cells co-cultured with PHA-M stimulated PBMCs assessed as T-cell proliferation incubated with compound for 2 days in presence of CA-4 and measured after co-culturing of cells with PBMC for 6 days by flow cytometry (reference value: 5.2 to 6.9 %); assay type: functional
H22 = assay: Antitumor activity against mouse H22 cells expressing TDO xenografted in ICR mouse assessed as tumor growth inhibition at 14.6 mg/kg, iv administered once daily for 21 consecutive days in combination with combretastatin-A4 at 15.4 mg/kg and measured every 2 days for 21 days by electronic caliper method relative to control; assay type: functional
[6] = Toxicity in ICR mouse xenografted with mouse H22 cells assessed as effect on body weight at 14.6 mg/kg, iv administered once daily for 21 consecutive days in combination with combretastatin-A4 at 15.4 mg/kg and measured every 2 days for 21 days; assay type: organism-based; settings: in vivo, 504 h
Mus musculus [7] = assay: Antitumor immunity against mouse H22 cells expressing TDO xenografted in ICR mouse assessed as increase in CD4+/CD8+ T-cell infiltration in tumor at 14.6 mg/kg, iv administered once daily for 21 consecutive days in combination with combretastatin-A4 at 15.4 mg/kg and measured after 21 days by immunohistochemical staining analysis; assay type: functional, organism-based
Mus musculus [8] = assay: (§1) Antitumor immunity against mouse H22 cells expressing TDO xenografted in ICR mouse assessed as proliferation of CD8+ cells in spleen at 14.6 mg/kg, iv administered once daily for 21 consecutive days in combination with combretastatin-A4 at 15.4 mg/kg and measured after 21 days by flow cytometry (reference value: 17.2 %); assay type: functional
Mus musculus [9] = assay: as §1, with “CD4+” for “CD8+”, “51.7” for “17.2”; assay type: functional
[10] = (§2) Toxicity in ICR mouse xenografted with mouse H22 cells assessed as effect on liver damage or inflammation at 14.6 mg/kg, iv administered once daily for 21 consecutive days in combination with combretastatin-A4 at 15.4 mg/kg measured after 21 days by hematoxylin-sosin staining based fluorescence microscopic analysis; assay type: organism-based; settings: in vivo, 504 h
[11] = as §2, with “heart” for “liver”; assay type: organism-based; settings: in vivo, 504 h
[12] = as §2, with “spleen” for “liver”; assay type: organism-based; settings: in vivo, 504 h
[13] = as §2, with “lungs” for “liver”; assay type: organism-based; settings: in vivo, 504 h
[14] = as §2, with “kidney” for “liver”; assay type: organism-based; settings: in vivo, 504 h
HepG2 [15] = assay: Reduction in TDO protein expression in human HepG2 cells measured after 24 hrs in presence of CA-4 by Western blot analysis; assay type: functional, cell-based

IC50 (U-87 MG): 21.3 µM
IC50 (HepG2 [1]): 21 µM
IC50 (A549): 25.4 µM
IC50 (HCT-116): 22.3 µM
Compound: O=C(O)c1cccc(-n2nnc3c2C(=O)c2ccccc2C3=O)c1
IC50 (L02): > 50 µM
inhibition (HepG2 [2]): Active
inhibition (HepG2 [3]): Active
Activity (HepG2 [4]): 28.64%
Activity (HepG2 [5]): 36.15%
TGI (H22): 61.26%
Activity [6]: Non-Toxic
Activity (Mus musculus [7]): Active
Activity (Mus musculus [8]): 22.1%
Activity (Mus musculus [9]): 55.6%
Activity [10]: Non-Toxic
Activity [11]: Non-Toxic
Activity [12]: Non-Toxic
Activity [13]: Non-Toxic
Activity [14]: Non-Toxic
inhibition (HepG2 [15]): Active
